According to patent US20220088016A1, “CANCER TREATMENT USING MULTI-TARGETED KINASE INHIBITOR IN COMBINATION OF PROTEIN KINASE BIOMARKERS” (ZHEJIANG CROWNMAB BIOTECH CO. LTD., priority 2019, published 2022):
pIC50: −log10 of the molar value.

How the values were obtained:
Assay in all cases: Kinase IC50 (Eurofins KinaseProfiler)
Assay type in all cases: biochemical
[1] = molecular target: T1, B-Raf (V599E) (h) (Homo sapiens, UniProt P15056, V600E)
T1 construct: purchased Eurofins
Description: (§1) CBT-102 were tested against each of the selected kinases using the Eurofins standard KinaseProfder assays and following the relevant standard operating procedures. The required volume of the 50× stock of test compound (CBT-102) was added to the assay well, before a reaction mix containing the enzyme and substrate was added. The reaction was initiated by the addition of ATP at the selected concentration. There was no pre-incubation of the compound with the enzyme/substrate mix prior to ATP addition.
(§2) Data are handled using a custom-built in-house analysis software. Results are expressed as kinase activity remaining, as a percentage of the DMSO control. This is calculated using the following formula: […]
(§3) For IC50 determinations, data are analyzed using XLFit version 5.3 (ID Business Solutions).

[2] = molecular target: T2, Aurora-C (h) (Homo sapiens, UniProt Q9UQB9)
T2 construct: purchased Eurofins
T2 sequence (Q9UQB9 whole entry): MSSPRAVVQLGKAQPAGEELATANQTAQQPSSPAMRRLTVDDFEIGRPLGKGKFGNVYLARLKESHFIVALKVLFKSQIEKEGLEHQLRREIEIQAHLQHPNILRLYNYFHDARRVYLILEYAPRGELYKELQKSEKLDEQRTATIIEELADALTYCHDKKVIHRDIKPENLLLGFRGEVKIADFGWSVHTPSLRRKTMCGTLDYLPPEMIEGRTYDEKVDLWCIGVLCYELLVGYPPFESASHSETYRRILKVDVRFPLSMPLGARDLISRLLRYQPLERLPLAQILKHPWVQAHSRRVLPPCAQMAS
Description: as §1, §2, §3

[3] = molecular target: T3, FGFR1 (h) (Homo sapiens, UniProt P11362)
T3 construct: purchased Eurofins (KinaseProfiler service)
Description: as §1, §2, §3

[4] = molecular target: T4, Aurora-B (h) (Homo sapiens, UniProt Q96GD4)
T4 construct: purchased Eurofins
Description: as §1, §2, §3

[5] = molecular target: T5, Abl (h) (Homo sapiens, UniProt P00519)
T5 construct: purchased Eurofins
T5 sequence (P00519 whole entry): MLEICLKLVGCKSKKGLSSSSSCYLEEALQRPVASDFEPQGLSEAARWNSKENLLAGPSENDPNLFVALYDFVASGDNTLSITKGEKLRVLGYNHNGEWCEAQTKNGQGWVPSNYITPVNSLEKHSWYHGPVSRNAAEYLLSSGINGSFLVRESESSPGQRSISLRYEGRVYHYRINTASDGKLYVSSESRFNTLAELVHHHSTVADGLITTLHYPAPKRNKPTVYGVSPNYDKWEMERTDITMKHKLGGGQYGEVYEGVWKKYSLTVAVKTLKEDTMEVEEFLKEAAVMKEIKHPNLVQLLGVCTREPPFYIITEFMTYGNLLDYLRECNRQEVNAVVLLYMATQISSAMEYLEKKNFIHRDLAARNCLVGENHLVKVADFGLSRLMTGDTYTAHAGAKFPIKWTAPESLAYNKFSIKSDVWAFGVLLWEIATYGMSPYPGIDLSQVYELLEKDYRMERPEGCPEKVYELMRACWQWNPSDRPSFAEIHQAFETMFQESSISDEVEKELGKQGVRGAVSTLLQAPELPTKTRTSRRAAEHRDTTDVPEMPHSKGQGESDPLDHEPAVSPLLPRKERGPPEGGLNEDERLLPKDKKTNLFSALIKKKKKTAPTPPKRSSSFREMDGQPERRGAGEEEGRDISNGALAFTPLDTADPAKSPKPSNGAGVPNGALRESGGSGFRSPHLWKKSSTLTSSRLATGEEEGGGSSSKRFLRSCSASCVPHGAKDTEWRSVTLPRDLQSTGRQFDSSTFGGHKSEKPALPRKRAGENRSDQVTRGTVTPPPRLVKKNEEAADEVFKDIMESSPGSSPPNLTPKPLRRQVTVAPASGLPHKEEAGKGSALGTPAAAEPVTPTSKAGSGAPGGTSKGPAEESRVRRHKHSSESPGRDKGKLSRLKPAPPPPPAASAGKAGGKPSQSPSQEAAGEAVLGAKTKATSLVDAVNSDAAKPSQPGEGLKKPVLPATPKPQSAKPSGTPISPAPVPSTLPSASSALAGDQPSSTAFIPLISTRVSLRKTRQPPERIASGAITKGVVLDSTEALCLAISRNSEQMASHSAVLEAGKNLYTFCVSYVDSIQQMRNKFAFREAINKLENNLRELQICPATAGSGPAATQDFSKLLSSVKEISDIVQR
Description: as §1, §2, §3

[6] = molecular target: T6, CHK1 (h) (Homo sapiens, UniProt O14757)
T6 construct: purchased Eurofins (KinaseProfiler service)
Description: as §1, §2, §3

[7] = molecular target: T7, PDGFRα (V561D) (h) (Homo sapiens, UniProt P16234, V561D)
T7 construct: purchased Eurofins (KinaseProfiler service)
Description: as §1, §2, §3

[8] = molecular target: T8, MuSK (h) (Homo sapiens, UniProt O15146)
T8 construct: purchased Eurofins (KinaseProfiler service)
T8 sequence (O15146 24-869): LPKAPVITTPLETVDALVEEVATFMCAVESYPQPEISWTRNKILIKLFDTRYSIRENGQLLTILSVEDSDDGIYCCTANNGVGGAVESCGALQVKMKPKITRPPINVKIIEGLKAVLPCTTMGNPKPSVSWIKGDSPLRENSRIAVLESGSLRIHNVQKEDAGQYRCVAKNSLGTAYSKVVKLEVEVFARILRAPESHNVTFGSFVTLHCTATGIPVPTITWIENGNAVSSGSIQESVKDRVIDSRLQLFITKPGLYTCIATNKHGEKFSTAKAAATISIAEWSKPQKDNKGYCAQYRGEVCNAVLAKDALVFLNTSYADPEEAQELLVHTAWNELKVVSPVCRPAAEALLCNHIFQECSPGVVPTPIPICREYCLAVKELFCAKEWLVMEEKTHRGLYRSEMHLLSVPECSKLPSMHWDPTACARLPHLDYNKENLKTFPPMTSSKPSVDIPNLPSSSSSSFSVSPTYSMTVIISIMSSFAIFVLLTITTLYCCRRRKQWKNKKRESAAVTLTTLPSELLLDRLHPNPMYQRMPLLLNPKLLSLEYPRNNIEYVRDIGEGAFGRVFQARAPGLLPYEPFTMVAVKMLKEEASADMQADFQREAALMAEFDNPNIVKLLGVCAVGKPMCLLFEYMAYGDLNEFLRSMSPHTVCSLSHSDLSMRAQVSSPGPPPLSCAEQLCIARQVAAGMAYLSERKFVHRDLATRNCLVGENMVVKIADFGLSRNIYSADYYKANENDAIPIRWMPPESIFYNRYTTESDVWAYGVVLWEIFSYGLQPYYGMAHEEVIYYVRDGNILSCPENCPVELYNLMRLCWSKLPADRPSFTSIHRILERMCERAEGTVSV
Description: as §1, §2, §3

[9] = molecular target: T9, EphB4 (h) (Homo sapiens, UniProt P54760)
T9 construct: purchased Eurofins (KinaseProfiler service)
Description: as §1, §2, §3

[10] = molecular target: T10, BRK (h) (Homo sapiens, UniProt Q13882)
T10 construct: purchased Eurofins
Description: as §1, §2, §3

[11] = molecular target: T11, SGK3 (h) (Homo sapiens, UniProt Q96BR1)
T11 construct: purchased Eurofins
Description: as §1, §2, §3

[12] = molecular target: T12, Fms (h) (CSF1R) (Homo sapiens, UniProt P07333)
T12 construct: purchased Eurofins (KinaseProfiler service)
Description: as §1, §2, §3

[13] = molecular target: T13, FGFR3 (h) (Homo sapiens, UniProt P22607)
T13 construct: purchased Eurofins (KinaseProfiler service)
Description: as §1, §2, §3

[14] = molecular target: T14, TYK2 (h) (Homo sapiens, UniProt P29597)
T14 construct: purchased Eurofins
Description: as §1, §2, §3

[15] = molecular target: T15, FGFR2 (h) (Homo sapiens, UniProt P21802)
T15 construct: purchased Eurofins (KinaseProfiler service)
Description: as §1, §2, §3

[16] = molecular target: T16, SLK (h) (Homo sapiens, UniProt Q9H2G2)
T16 construct: purchased Eurofins
Description: as §1, §2, §3

[17] = molecular target: T17, IRAK4 (h) (Homo sapiens, UniProt Q9NWZ3)
T17 construct: purchased Eurofins (KinaseProfiler service)
Description: as §1, §2, §3

[18] = molecular target: T18, PrKX (h) (Homo sapiens, UniProt P51817)
T18 construct: purchased Eurofins
Description: as §1, §2, §3

[19] = molecular target: T19, CDKL3 (h) (Homo sapiens, UniProt Q8IVW4)
T19 construct: purchased Eurofins (KinaseProfiler service)
Description: as §1, §2, §3

[20] = molecular target: T20, ErbB4 (h) (Homo sapiens, UniProt Q15303)
T20 construct: purchased Eurofins (KinaseProfiler service)
Description: as §1, §2, §3

[21] = molecular target: T21, Plk1 (h) (Homo sapiens, UniProt P53350)
T21 construct: purchased Eurofins
Description: as §1, §2, §3

[22] = molecular target: T22, KDR (h) (Homo sapiens, UniProt P35968)
T22 construct: purchased Eurofins (KinaseProfiler service)
Description: as §1, §2, §3

[23] = molecular target: T23, EphB3 (h) (Homo sapiens, UniProt P54753)
T23 construct: purchased Eurofins (KinaseProfiler service)
Description: as §1, §2, §3

[24] = molecular target: T24, Fgr (h) (Homo sapiens, UniProt P09769)
T24 construct: purchased Eurofins (KinaseProfiler service)
T24 sequence (P09769 whole entry): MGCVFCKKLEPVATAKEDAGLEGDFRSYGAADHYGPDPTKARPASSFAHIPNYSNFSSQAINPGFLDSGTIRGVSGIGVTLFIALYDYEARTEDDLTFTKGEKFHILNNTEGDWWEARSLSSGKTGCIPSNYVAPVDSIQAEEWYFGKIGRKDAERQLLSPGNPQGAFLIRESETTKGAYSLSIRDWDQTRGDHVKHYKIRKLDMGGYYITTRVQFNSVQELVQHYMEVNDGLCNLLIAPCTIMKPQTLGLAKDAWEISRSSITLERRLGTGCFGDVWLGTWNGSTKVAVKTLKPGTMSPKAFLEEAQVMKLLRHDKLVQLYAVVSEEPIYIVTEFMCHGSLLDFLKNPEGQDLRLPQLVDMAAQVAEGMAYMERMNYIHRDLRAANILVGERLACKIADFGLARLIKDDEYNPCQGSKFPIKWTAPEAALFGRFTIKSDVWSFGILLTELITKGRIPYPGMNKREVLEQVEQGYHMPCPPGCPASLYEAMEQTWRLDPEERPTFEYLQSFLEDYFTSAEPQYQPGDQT
Description: as §1, §2, §3

[25] = molecular target: T25, IKKβ (h) (Homo sapiens, UniProt O14920)
T25 construct: purchased Eurofins (KinaseProfiler service)
Description: as §1, §2, §3

[26] = molecular target: T26, MAP4K4 (h) (Homo sapiens, UniProt O95819)
T26 construct: purchased Eurofins (KinaseProfiler service)
Description: as §1, §2, §3

[27] = molecular target: T27, Flt3 (h) (Homo sapiens, UniProt P36888)
T27 construct: purchased Eurofins (KinaseProfiler service)
Description: as §1, §2, §3

[28] = molecular target: T28, RIPK2 (h) (Homo sapiens, UniProt O43353)
T28 construct: purchased Eurofins
Description: as §1, §2, §3

[29] = molecular target: T29, cKit (V654A) (h) (Homo sapiens, UniProt P10721, V654A)
T29 construct: purchased Eurofins (KinaseProfiler service)
T29 sequence (P10721 26-976 V654A): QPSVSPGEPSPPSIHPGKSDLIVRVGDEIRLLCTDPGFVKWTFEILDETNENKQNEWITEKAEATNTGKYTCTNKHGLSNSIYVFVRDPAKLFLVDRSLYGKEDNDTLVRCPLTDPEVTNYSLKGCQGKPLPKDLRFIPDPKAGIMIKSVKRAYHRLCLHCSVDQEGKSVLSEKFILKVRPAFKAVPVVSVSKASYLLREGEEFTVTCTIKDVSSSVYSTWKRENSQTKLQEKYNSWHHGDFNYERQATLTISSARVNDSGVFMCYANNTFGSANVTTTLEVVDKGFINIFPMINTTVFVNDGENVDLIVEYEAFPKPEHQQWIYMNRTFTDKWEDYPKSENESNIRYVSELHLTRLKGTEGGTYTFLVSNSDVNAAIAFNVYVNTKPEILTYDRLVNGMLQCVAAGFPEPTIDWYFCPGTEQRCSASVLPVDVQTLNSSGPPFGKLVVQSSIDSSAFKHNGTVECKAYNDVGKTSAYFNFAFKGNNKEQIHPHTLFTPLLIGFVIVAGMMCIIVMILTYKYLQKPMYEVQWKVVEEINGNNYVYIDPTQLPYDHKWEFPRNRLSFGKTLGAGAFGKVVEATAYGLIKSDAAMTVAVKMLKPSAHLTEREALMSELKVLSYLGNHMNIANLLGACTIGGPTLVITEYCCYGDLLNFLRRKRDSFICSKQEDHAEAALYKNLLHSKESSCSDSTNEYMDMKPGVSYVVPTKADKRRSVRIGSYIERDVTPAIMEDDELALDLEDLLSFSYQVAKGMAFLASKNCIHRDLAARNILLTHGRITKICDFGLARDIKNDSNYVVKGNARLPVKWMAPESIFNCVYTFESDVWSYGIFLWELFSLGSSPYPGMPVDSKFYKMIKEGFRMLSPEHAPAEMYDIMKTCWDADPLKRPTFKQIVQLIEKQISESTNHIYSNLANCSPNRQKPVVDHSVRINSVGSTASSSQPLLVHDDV
Description: as §1, §2, §3

[30] = molecular target: T30, EGFR (h) (Homo sapiens, UniProt P00533)
T30 construct: purchased Eurofins (KinaseProfiler service)
Description: as §1, §2, §3

[31] = molecular target: T31, CDK6/cyclinD3 (h) (Homo sapiens, UniProt Q00534)
T31 construct: purchased Eurofins (KinaseProfiler service)
Description: as §1, §2, §3

[32] = molecular target: T32, CSK (h) (Homo sapiens, UniProt P41240)
T32 construct: purchased Eurofins (KinaseProfiler service)
Description: as §1, §2, §3

[33] = molecular target: T33, EphA1 (h) (Homo sapiens, UniProt P21709)
T33 construct: purchased Eurofins (KinaseProfiler service)
T33 sequence (P21709 26-976): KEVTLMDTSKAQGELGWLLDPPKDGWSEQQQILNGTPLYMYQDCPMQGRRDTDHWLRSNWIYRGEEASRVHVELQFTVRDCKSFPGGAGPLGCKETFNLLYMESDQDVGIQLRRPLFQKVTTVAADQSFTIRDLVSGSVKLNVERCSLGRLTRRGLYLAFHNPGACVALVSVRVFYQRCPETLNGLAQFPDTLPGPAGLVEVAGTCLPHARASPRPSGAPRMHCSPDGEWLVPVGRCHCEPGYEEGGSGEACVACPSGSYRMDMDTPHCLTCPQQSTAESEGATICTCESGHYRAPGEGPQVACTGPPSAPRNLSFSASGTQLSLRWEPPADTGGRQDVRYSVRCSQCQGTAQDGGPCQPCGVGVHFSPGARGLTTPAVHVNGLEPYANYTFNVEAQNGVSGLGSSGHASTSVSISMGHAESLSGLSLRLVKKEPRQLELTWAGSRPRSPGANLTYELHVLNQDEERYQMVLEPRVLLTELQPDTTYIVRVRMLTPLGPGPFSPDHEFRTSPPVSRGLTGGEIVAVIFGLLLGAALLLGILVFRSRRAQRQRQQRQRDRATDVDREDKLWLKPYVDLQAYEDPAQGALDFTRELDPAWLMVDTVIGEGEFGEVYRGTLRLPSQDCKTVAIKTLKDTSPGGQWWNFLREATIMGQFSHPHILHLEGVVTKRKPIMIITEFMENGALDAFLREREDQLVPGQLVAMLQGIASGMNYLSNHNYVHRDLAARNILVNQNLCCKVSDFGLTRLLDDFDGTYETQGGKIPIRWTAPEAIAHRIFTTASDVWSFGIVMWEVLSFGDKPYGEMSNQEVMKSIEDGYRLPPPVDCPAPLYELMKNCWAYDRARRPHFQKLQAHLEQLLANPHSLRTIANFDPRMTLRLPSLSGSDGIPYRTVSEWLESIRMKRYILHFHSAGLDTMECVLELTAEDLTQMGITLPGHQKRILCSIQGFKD
Description: as §1, §2, §3

[34] = molecular target: T34, SAPK2a (h) (Homo sapiens, UniProt Q16539)
T34 construct: purchased Eurofins
T34 sequence (Q16539 whole entry): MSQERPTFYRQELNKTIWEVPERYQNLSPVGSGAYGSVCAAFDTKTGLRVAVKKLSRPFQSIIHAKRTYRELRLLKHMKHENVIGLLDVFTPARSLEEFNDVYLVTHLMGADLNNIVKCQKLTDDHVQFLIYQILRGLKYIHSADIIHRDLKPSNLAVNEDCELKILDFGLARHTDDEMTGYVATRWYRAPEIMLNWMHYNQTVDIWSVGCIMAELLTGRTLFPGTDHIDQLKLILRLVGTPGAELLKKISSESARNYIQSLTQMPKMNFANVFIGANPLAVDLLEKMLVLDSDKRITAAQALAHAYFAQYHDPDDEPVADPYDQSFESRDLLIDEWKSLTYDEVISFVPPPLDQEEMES
Description: as §1, §2, §3

[35] = molecular target: T35, IGF-1R (h) (Homo sapiens, UniProt P08069)
T35 construct: purchased Eurofins (KinaseProfiler service)
Description: as §1, §2, §3

Compound: Cc1cc(Oc2cc(NC(=O)C3CC3)ncn2)ccc1NC(=O)Nc1ccc(Cl)c(C(F)(F)F)c1 [CBT-102]
- pIC50 [1]: 6.94
- pIC50 [2]: < 5.00
- pIC50 [3]: 6.39
- pIC50 [4]: 6.28
- pIC50 [5]: 5.74
- pIC50 [6]: < 5.00
- pIC50 [7]: 7.55
- pIC50 [8]: 6.56
- pIC50 [9]: 6.31
- pIC50 [10]: < 5.00
- pIC50 [11]: < 5.00
- pIC50 [12]: 7.37
- pIC50 [13]: < 5.00
- pIC50 [14]: < 5.00
- pIC50 [15]: 6.22
- pIC50 [16]: 6.06
- pIC50 [17]: < 5.00
- pIC50 [18]: < 5.00
- pIC50 [19]: < 5.00
- pIC50 [20]: < 5.00
- pIC50 [21]: < 5.00
- pIC50 [22]: 7.60
- pIC50 [23]: < 5.00
- pIC50 [24]: 5.85
- pIC50 [25]: < 5.00
- pIC50 [26]: 6.12
- pIC50 [27]: 5.96
- pIC50 [28]: 6.97
- pIC50 [29]: 6.56
- pIC50 [30]: < 5.00
- pIC50 [31]: < 5.00
- pIC50 [32]: < 5.00
- pIC50 [33]: 5.95
- pIC50 [34]: 6.74
- pIC50 [35]: < 5.00
